# Where two headings read alike, the source gives them in different places.
# Experiments:
# [1] = test system: 13-resistant mutant of Mtb H37Rv; type: cell-based, Mycobacterium tuberculosis
# (UniProt A0A0H3MFG4) = experiment: biochemical; type: binding, Mycobacterium bovis BCG
# (UniProt A0A0H3MC72) = experiment: biochemical; type: binding, Mycobacterium bovis BCG
# (UniProt A0A0H3M9R5) = experiment: biochemical; type: binding, Mycobacterium bovis BCG
# (UniProt A0A0H3MB87) = experiment: biochemical; type: binding, Mycobacterium bovis BCG
# (UniProt A0A0H3MB87), sequence (A0A0H3MB87 1-463): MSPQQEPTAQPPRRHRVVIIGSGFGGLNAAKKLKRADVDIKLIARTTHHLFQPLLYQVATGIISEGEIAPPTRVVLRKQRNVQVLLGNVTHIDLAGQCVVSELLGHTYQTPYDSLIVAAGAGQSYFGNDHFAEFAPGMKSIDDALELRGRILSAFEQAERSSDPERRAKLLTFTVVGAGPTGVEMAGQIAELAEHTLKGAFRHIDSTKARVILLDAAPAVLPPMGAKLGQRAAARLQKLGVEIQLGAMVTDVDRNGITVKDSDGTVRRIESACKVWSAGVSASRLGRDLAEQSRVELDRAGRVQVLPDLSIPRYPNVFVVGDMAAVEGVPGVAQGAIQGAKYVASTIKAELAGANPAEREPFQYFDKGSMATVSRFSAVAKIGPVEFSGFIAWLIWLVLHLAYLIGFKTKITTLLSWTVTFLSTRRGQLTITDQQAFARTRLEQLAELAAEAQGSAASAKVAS
# (UniProt A0A0H3M9R5), sequence (A0A0H3M9R5 1-518): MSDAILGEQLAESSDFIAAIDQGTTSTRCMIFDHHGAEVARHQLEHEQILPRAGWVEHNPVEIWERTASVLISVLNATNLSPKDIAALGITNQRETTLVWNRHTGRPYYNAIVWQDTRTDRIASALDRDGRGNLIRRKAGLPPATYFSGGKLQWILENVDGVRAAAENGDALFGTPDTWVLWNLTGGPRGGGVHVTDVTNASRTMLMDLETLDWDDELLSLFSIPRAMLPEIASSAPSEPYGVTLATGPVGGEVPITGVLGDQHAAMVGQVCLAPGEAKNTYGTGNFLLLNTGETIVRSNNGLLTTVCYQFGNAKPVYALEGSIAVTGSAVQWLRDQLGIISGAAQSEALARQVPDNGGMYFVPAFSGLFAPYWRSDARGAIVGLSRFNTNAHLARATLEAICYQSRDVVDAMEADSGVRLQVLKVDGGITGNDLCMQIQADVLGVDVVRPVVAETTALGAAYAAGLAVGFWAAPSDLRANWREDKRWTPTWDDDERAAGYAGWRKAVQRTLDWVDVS
# (UniProt A0A0H3MC72), sequence (A0A0H3MC72 1-488): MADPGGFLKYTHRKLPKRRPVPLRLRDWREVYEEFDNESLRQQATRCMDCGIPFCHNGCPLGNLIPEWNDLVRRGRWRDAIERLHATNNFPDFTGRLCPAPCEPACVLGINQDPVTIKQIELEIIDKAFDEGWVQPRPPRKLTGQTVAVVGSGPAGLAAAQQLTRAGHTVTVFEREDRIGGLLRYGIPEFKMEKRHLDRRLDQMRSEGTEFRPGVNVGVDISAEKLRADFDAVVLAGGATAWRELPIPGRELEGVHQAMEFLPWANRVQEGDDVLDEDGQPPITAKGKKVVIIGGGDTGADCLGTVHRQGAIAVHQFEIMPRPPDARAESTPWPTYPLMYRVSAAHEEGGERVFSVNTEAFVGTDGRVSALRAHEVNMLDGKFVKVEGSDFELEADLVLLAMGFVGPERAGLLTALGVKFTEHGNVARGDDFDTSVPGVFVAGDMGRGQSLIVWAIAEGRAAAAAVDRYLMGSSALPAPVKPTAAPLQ
# (UniProt A0A0H3MFG4), sequence (A0A0H3MFG4 1-834): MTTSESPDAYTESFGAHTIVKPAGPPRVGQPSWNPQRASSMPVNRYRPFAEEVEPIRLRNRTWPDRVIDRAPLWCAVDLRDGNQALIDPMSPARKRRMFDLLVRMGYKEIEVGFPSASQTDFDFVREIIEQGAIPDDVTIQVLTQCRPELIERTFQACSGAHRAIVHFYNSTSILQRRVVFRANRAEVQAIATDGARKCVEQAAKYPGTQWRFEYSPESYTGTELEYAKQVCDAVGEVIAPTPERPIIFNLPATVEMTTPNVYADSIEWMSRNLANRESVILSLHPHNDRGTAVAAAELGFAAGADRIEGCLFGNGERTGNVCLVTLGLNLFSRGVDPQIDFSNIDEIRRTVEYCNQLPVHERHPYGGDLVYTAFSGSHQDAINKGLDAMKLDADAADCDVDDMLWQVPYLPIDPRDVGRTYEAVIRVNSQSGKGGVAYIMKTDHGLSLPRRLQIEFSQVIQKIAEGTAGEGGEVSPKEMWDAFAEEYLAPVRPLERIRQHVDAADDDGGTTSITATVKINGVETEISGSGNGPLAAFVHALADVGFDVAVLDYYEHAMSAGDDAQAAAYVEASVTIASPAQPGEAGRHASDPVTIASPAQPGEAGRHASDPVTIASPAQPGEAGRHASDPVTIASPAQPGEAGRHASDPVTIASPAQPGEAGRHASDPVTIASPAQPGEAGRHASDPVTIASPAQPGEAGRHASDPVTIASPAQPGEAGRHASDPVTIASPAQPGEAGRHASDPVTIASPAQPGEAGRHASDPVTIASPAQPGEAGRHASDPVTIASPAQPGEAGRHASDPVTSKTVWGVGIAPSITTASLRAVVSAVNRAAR
compound,measurement,setting,value
"COc1ccc(NC(=O)c2cc(N(C)Cc3ccccc3)ncn2)cc1 [Compound 1, 6-(Benzyl(methyl)amino)-N-(4-methoxyphenyl)pyrimidine-4-carboxamide]",14 day GAST/Fe MIC99 against 13-resistant mutant,[1],>160 µM
"CN(Cc1ccc(F)cc1)c1cc(C(=O)Nc2ccccc2)ncn1 [Compound 10, 6-((4-Fluorobenzyl)(methyl)amino)-N-phenylpyrimidine-4-carboxamide]",14 day GAST/Fe MIC99 against 13-resistant mutant,[1],>160 µM
"COc1ccc(NC(=O)c2cc(N(C)Cc3cccc(F)c3)ncn2)cc1 [Compound 13, 6-((3-Fluorobenzyl)(methyl)amino)-N-(4-methoxyphenyl)pyrimidine-4-carboxamide]",14 day GAST/Fe MIC99 against 13-resistant mutant,[1],>160 µM
"CN(Cc1ccc(C(F)(F)F)nc1)c1cc(C(=O)Nc2ccccc2)ncn1 [Compound 20, 6-(Methyl((6-(trifluoromethyl)pyridin-3-yl)methyl)amino)-N-phenylpyrimidine-4-carboxamide]",14 day GAST/Fe MIC99 against 13-resistant mutant,[1],>160 µM
"O=C(Nc1ccccc1)c1ccc(=O)n(Cc2ccc(F)cc2)c1 [Compound 25, 1-(4-Fluorobenzyl)-6-oxo-N-phenyl-1,6-dihydropyridine-3-carboxamide]",IC50,(UniProt A0A0H3MFG4); read-out: IC50,≥ 30 µM
same,IC50,(UniProt A0A0H3MFG4); read-out: pIC50 (converted),≥ 30.2 µM
same,IC50,(UniProt A0A0H3MC72); read-out: IC50,≥ 30 µM
same,IC50,(UniProt A0A0H3MC72); read-out: pIC50 (converted),≥ 30.2 µM
same,IC50,(UniProt A0A0H3M9R5); read-out: IC50,≥ 30 µM
same,IC50,(UniProt A0A0H3M9R5); read-out: pIC50 (converted),≥ 30.2 µM
same,IC50,(UniProt A0A0H3MB87); read-out: IC50,≥ 30 µM
same,IC50,(UniProt A0A0H3MB87); read-out: pIC50 (converted),≥ 30.2 µM
"CC(C)Oc1ccc(NC(=O)c2cc(N(C)Cc3ccc(F)cc3)ncn2)cc1 [Compound 36, 6-((4-Fluorobenzyl)(methyl)amino)-N-(4-isopropoxyphenyl)pyrimidine-4-carboxamide]",14 day GAST/Fe MIC99 against 13-resistant mutant,[1],>160 µM

# From PMC5748279, “Novel Antitubercular 6-Dialkylaminopyrimidine Carboxamides from Phenotypic Whole-Cell High Throughput Screening of a SoftFocus Library: Structure–Activity Relationship and Target Identification Studies” (Journal of Medicinal Chemistry, 2017)
